Laboratory results as given in ChEMBL document CHEMBL1132750, “The synthesis and biological evaluation of a novel series of phthalazine PDE4 inhibitors I” (Bioorg Med Chem Lett, 2000).

Tests used:
Phosphodiesterase 4 [1] = target: T1, Phosphodiesterase 4 (Homo sapiens, UniProt P27815+Q08499+Q07343+Q08493); assay: Inhibition of rolipram binding to PDE4 from human neutrophils; format: protein assay
Phosphodiesterase 4 [2] = target: T1, Phosphodiesterase 4; assay: Inhibition of Phosphodiesterase 4 from human neutrophils; format: protein assay
Canis familiaris = assay: Emetic effect in dogs after intravenous dose; format: functional; details: Canis lupus familiaris
Rattus norvegicus = species: Rattus norvegicus; assay: Increased acid secretion in isolated whole rat stomach; format: functional
Homo sapiens = species: Homo sapiens; assay: Inhibition of TNF alpha synthesis in human monocytes; format: functional
Phosphodiesterase 4 [3] = target: T1, Phosphodiesterase 4; assay: Inhibition of Phosphodiesterase 4 from human neutrophils at 10e-7 M; format: protein assay

| Ki (Phosphodiesterase 4 [1]) [nM] | IC50 (Phosphodiesterase 4 [2]) [nM] | IC50 (Rattus norvegicus) [nM] | IC50 (Homo sapiens) [nM] | inhibition (Phosphodiesterase 4 [3]) [%] | Compound | ED50 (Canis familiaris) [µmol/kg] |
| --- | --- | --- | --- | --- | --- | --- |
| 149 | 53 | 7000 | 254 | – | COc1ccc2c(Cc3c(Cl)cncc3Cl)nncc2c1OC1CCCC1 | > 10 |
| 121 | 42 | – | 139 | – | COc1ccc2c(Cc3c(Cl)cncc3Cl)n[n+]([O-])cc2c1OC1CCCC1 | – |
| 286 | 153 | – | – | – | COc1ccc2c(Cc3c(Cl)cncc3Cl)nncc2c1OC1CCOC1 (centres undefined) | – |
| 95 | 59 | – | 187 | – | COc1ccc2c(Nc3c(Cl)cncc3Cl)nncc2c1OC1CCCC1 | – |

The next lines start with the compound.

| Compound | Ki (Phosphodiesterase 4 [1]) [nM] | IC50 (Phosphodiesterase 4 [2]) [nM] | IC50 (Rattus norvegicus) [nM] | IC50 (Homo sapiens) [nM] | inhibition (Phosphodiesterase 4 [3]) [%] | ED50 (Canis familiaris) [µmol/kg] |
| --- | --- | --- | --- | --- | --- | --- |
| COc1ccc2c(Cc3c(Cl)cncc3Cl)nncc2c1CCCCCc1ccccc1 | 320 | 30 | – | 103 | – | – |
| COc1ccc2c(Cc3c(Cl)cncc3Cl)nncc2c1C#CCCCc1ccccc1 | 71 | 10 | – | 30 | – | – |
| COc1ccc2c(Cc3c(Cl)cncc3Cl)nncc2c1OC1Cc2ccccc2C1 | 16 | 30 | – | 252 | – | – |
| COc1cc2cnnc(Cc3c(Cl)cncc3Cl)c2cc1OC1CCCC1 | – | 186 | – | – | – | – |
| COc1ccc(C2CNC(=O)C2)cc1OC1CCCC1 (centres undefined) [ROLIPRAM] | – | – | 40 | 225 | – | 0.3 |
| COc1ccc(C(=O)Nc2c(Cl)cncc2Cl)cc1OC1CCCC1 | – | – | 70 | 1.3 | – | 1 |
| FC(F)Oc1ccc2c(Cc3c(Cl)cncc3Cl)nncc2c1OC1CCCC1 | 46 | 39 | – | 167 | – | – |
| COc1cc2cnnc(Nc3c(Cl)cncc3Cl)c2cc1OC1CCCC1 | – | – | – | – | 7 | – |
| COc1ccc2c(Cc3c(Cl)cncc3Cl)nncc2c1OCCCCCc1ccccc1 | 13 | 57 | – | 83 | – | – |
| COc1ccc2c(Cc3c(Cl)cncc3Cl)nncc2c1/C=C/CCCc1ccccc1 | 164 | 19 | – | 52 | – | – |
